In patent publication US9340543B2, “Helquat derivatives, preparation thereof, and use thereof as medicaments” (USTAV ORGANICKE CHEMIE A BIOCHEMIE AKADEMIE VED CR, V.V.I., priority 2013, dated 2016) one finds melting point and IC50 data, which are given here for five compounds.

Counter-ions that a name gives are not always drawn.

In data set [1] the test system is HL-60. The data set is described as follows: CellTiter-Glo luminescent cell viability assay (ATP quantification), HL-60. It counts as cell-based. To be noted: acute promyelocytic leukemia cells, 72 h treatment, viable cells by ATP luminescence. How it is done:
(§1) Influence of the test compounds on viability (proliferation) of cell lines used was investigated in concentration range 0-100 μmol·l^−1.
Suspension cell line HL-60 is a permanent in vitro culture of acute promyelocytic leukemia. HL-60 cell line was cultivated in RPMI 1640 medium (Sigma-Aldrich, see above) with addition of 2 mmol·l^−1 glutamine (Invitrogen, see above), 10% fetal bovine serum (FBS, Sigma-Aldrich, see above), 100 IU/ml peniciline, 100 μg/ml streptomycine (Sigma-Aldrich, see above). Passaging was performed 2-3× a week. Population doubling time of HL-60 cell line was 23 h under the cultivation conditions used.
(§2) In order to test the sensitivity of the cell lines towards the studied helquats, cytotoxity test for cell viability assessment based on ATP quantification in cell lysates was used (CellTiter-Glo® Luminescent Cell Viability Assay, Promega, cat. no. G7571). In this test, ATP in cell lysates is detected using luciferase reaction. Luminescence intensity correlates with the ATP level and thus with quantity of metabolically active (viable) cells. IC50 value serves as the output, that is the concentration of the test compound which leads to 50% reduction in number of viable cells as compared to control, untreated population. To this end, IC50 value reflects efficiency of the test compound with regard to the given cell line.
(§3) Cells in the exponential growth phase were seeded into a 96-well microtiter plate were plated at 3000 cells per well. Each well contained 90 μl of cell suspension. The next day, 10 μl of 10× concentrated test compound solutions were added. The effect of helquats was investigated in concentration range 1 to 100 μmol·l^−1 (e.g. 1; 2.5; 5; 7.5; 10; 15; 25; 50 and 100 μmol·l^−1). Apart from the section containing the concentration series of the test compound, each well contained 2 control columns, the first with pure medium (so called blank) and the second with cells in medium without the test compounds (control). Into wells containing controls and blanks, volume of solvent (water) equal to the volume of added compound solutions was added. After 72 h of incubation with the test compounds viability was determined according to the manufacturer's instructions. In short: microtiter well plate was left 30 min to reach the room temperature after it has been removed from the incubator. Then, into each well, 100 μl of the prepared detection agent was added. Next, the well plate was shaken for 2 min to complete the full lysis. Next, after the well had been left in the dark for 15 min, the luminescence was measured in each well using luminometer (Tecan Genios, Austria).
(§4) IC50 value represents concentration of the test compound, which leads to 50% reduction of viable cells (inhibition of cell growth) after 72 h of the treatment. Each helquat concentration was tested in triplicates in a IC50 quantification and at least 3 independent IC50 quantification experiments were performed. IC50 values over 100 μmol·l^−1 were obtained by extrapolation of data measured in concentration range 0-100 μmol·l^−1 for the given helquat.
In general terms: Cellular ATP, detected with luciferase, serves as a proxy for viable cell number.

Data set [2] deals with NHDF-Ad. The data set is described as follows: CellTiter-Glo luminescent cell viability assay (ATP quantification), NHDF-Ad normal cells. Particulars: normal human dermal fibroblasts, 72 h treatment. The format is cell-based.
Source text: as §1
Normal human dermal fibroblasts were cultivated without antibiotics in basal medium for fibroblasts (ATCC/LGC Standards, cat. no. PCS-201-030) with added “Fibroblast Growth Kit-Low serum” (ATCC/LGC Standards, cat. no. PCS-201-041) containing 2% FBS, L-glutamine, hydrocortisone, ascorbic acid, rh FGF beta, rh insulin. When 90% confluency was reached the fibroblasts were washed with sterile PBS (5 ml) and dissociated by addition of 0.25% solution of trypsin/EDTA (2 ml; 2 min; 37° C.). After that 5 ml of cultivation medium for fibroblasts was added and the cells were centrifuged (180×g, 7 min), the cell pellet was resuspended, and transferred in the amount needed into a new cultivation bottle with fresh medium. The same cell release procedure was applied when the cells were to be used in experiments. The cells were used in experiments between the 3rd and the 15th passage after defreeezing. Population doubling time of NHDF-Ad cell line was 33 h under the cultivation conditions used.
as §2, §3, §4

Data set [3] deals with CCRF-CEM. In words: CellTiter-Glo luminescent cell viability assay (ATP quantification), CCRF-CEM. The format is cell-based. Particulars: acute lymphoblastic leukemia cells, 72 h treatment, viable cells by ATP luminescence. The method, then: as §1
Suspension cell line CCRF-CEM is a permanent in vitro culture of acute lymphoblastic leukemia. CCRF-CEM cell line was cultivated in RPMI 1640 medium (Sigma-Aldrich, cat. no. R8758) with addition of 2 mmol·l^−1 glutamine (Invitrogen, cat. no. 35050-038), 10% fetal bovine serum (FBS, Sigma-Aldrich, cat. no. F9665), 100 IU/ml peniciline, 100 μg/ml streptomycine (Sigma-Aldrich, cat. no. P0781). Passaging was performed 2-3× a week. Population doubling time of CCRF-CEM cell line was 20 h under the cultivation conditions used.
as §2, §3, §4

Data set [4] deals with MOLT-4. The data set is described as follows: CellTiter-Glo luminescent cell viability assay (ATP quantification), MOLT-4. The format is cell-based. To be noted: acute lymfoblastic leukemia cells, 72 h treatment, viable cells by ATP luminescence. How it is done: as §1
Suspension cell line MOLT-4 is a permanent in vitro culture of acute lymfoblastic leukemia. Linie MOLT-4 cell line was cultivated in RPMI 1640 medium (Sigma-Aldrich, see above) with addition of 2 mmol glutamine (Invitrogen, see above), 10% fetal bovine serum (FBS, Sigma-Aldrich, see above), 100 IU/ml peniciline, 100 μg/ml streptomycine (Sigma-Aldrich, see above). Passaging was performed 2-3× a week. Population doubling time of […] cell line was 25 h under the cultivation conditions used.
as §2, §3, §4

Data set [5] concerns LoVo. In words: CellTiter-Glo luminescent cell viability assay (ATP quantification), LoVo. It counts as cell-based. Particulars: Homo sapiens, LoVo; colorectal carcinoma cells, 72 h treatment, viable cells by ATP luminescence; class symbols. The method, then: as §1
(§5) Adherent cell line LoVo is a permanent in vitro culture derived from tissue of a patient with colorectal carcinoma. LoVo cell line was cultivated in DMEM medium (Sigma-Aldrich, cat. no. D8437) with addition of 2 mmol·l^−1 glutamine (Invitrogen, see above), 10% fetal bovine serum (FBS, Sigma-Aldrich, see above), 100 IU/ml peniciline, 100 μg/ml streptomycine (Sigma-Aldrich, see above). Passaging was performed twice a week. After washing of cells with sterile PBS, the cells were released by 0.25% trypsin/EDTA (Sigma-Aldrich, see above) at 37° C. for 2 minutes. The trypsin was inactivated by addition of 2 volumes of complete medium, cells were then centrifuged (250×g, 5 min), resuspended, and transferred in the amount needed into a new cultivation bottle with fresh medium. Population doubling time of LoVo cell line was 39 h under the cultivation conditions used.
as §2, §3, §4

Data set [6] has as its system HeLa. The data set is described as follows: CellTiter-Glo luminescent cell viability assay (ATP quantification), HeLa. It counts as cell-based. To be noted: cervical cancer cells, 72 h treatment, viable cells by ATP luminescence. The method, then: as §1
Adherent cell line HeLa is a permanent in vitro culture derived from cervical cancer. HeLa cell line was cultivated in RPMI 1640 medium (Dutch modification) (Sigma-Aldrich, cat. no. R7638) with addition of 2 mmol·l^−1 glutamine (Invitrogen, see above), 10% fetal bovine serum (FBS, Sigma-Aldrich, see above), 100 IU/ml peniciline, 100 μg/ml streptomycine (Sigma-Aldrich, see above). Passaging was performed twice a week. After washing of cells with sterile PBS the cells were released by 0.25% trypsin/EDTA (Sigma-Aldrich, cat. no. T4049) at 37° C. for 2 minutes. The trypsin was inactivated by addition of 2 volumes of complete medium, cells were then centrifuged (250×g, 5 min), the cell pellet was resuspended, and transferred in the amount needed into a new cultivation bottle with fresh medium. Population doubling time of […] cell line was 25 h under the cultivation conditions used.
as §2, §3, §4

For data set [7], the system named is HUVEC. The data set is described as follows: CellTiter-Glo luminescent cell viability assay (ATP quantification), HUVEC normal cells. The format is cell-based, human. Particulars: 72 h treatment. The method, then: as §1
Normal human endothelial cells from umbilical vein are adherent cells cultivated in plastic Petri dishes coated with collagen I. Into the cultivation medium (E-STIM™; BD Biosciences, cat. co. 355054) already containing 2% FBS (fetal bovine serum), hydrocortisone and heparin the following two further ingredients were added: epidermal growth factor (EGF, 5 μg) and mixture of factors facilitating growth of endothelial cells (ECGS, 100 mg). […] The cells were passaged after reaching 90% confluency by dissociation using 0.25% solution of trypsin/EDTA (1 ml; 3 min; 37° C.). After that 5 ml of complete cultivation medium E-STIM™ was added and the cells were centrifuged (180×g, 7 min), the pellet was resuspended, and transferred in the amount needed into a new Petri dish with fresh medium. The cells were used in experiments between the 3rd and the 8th passage after defreezing. Population doubling time of HUVEC cell line was 38 h under the cultivation conditions used.
as §2, §3, §4

The test system of data set [8] is Hep G2. The data set is described as follows: CellTiter-Glo luminescent cell viability assay (ATP quantification), Hep G2. The format is cell-based. Particulars: Homo sapiens, HepG2; hepatocellular carcinoma cells, 72 h treatment, viable cells by ATP luminescence. The method, then: as §1
as §5, with “Hep G2” for “LoVo”, “from liver” for “from”, “hepatocellular” for “colorectal”, “M4528)” for “D8437)”, “28” for “39”
as §2
as §3, with “In short: microtiter well plate was left 30 min to reach the room temperature after it has been removed from the incubator. Then, into each well, 100 μl of the prepared detection agent was added. Next, the well plate was shaken for 2 min to complete the full lysis.” left out, “Austria). […]” for “Austria).”

The mark [9] stands for this setting: Fibroblast, numeric bound, values over 100 obtained by extrapolation of data measured at 0-100 μmol·l−1.
Where [10] appears, read: HUVEC, normal human endothelial cells, numeric bound, values over 100 obtained by extrapolation of data measured at 0-100 μmol·l−1.

As usually defined, the melting point is the temperature of the solid-liquid transition. As to `CN(C)c1ccc(/C=C/c2cccc3[n+]2CCCc2ccc4c(c2-3)-c2cccc(/C=C/c3ccc(N(C)C)cc3)[n+]2CCC4)cc1` (racemic) (as salt: methanesulfonate) [(rac)-41, (rac)-4,15-bis((E)-4-(dimethylamino)styryl)-6,7,8,11,12,13-hexahydro-dipyrido[1,2-a:1′,2′-a′]benzo[2,1-c:3,4-c′]bisazepinediium trifluoromethanesulfonate], the melting point is 318 to 322 °C.

One may read the IC50 as the concentration that inhibits the measured activity by half. Turning to `C(=C\c1cc[n+]2c(c1)-c1c(ccc3c1-c1c4ccccc4cc[n+]1CCC3)CCC2)/c1cc2c3c(c1)CCCN3CCC2` (racemic) [(rac)-25, (rac)-(E)-19-(2-(1,2,3,5,6,7-hexahydropyrido[3,2,1-ij]quinolin-9-yl)vinyl)-8,9,10,13,14,15-hexahydropyrido[1′″,2′″:1″,2″]azepino[4″,3″:5′,6′]benzo[1′,2′:3,4]azepino[2,1-a]isoquinoline-7,16-diium trifluoromethanesulfonate], the IC50 was 11 to 50 µM in data set [1] (Homo sapiens, HL-60); over 150 µM in [2] (setting [9]); 11 to 50 µM in [3] (Homo sapiens, CCRF-CEM); 11 to 50 µM in data set [4] (Homo sapiens, MOLT-4); 51 to 150 µM in data set [5]; 11 to 50 µM in data set [6] (Homo sapiens, HeLa). In addition, the IC50 in data set [7] (setting [10]) was over 150 µM.

For the compound `COc1ccc2cc(/C=C/c3cc[n+]4c(c3)-c3c(c(C)c(C)c5c3-c3c6ccccc6cc[n+]3CC5)CC4)ccc2c1` (racemic) [(rac)-7, (rac)-(E)-13-(2-(6-methoxynaphthalene-2-yl)vinyl)-6,7-dimethyl-4,5,8,9-tetrahydroisoquinolino[1,2-a]pyrido[1,2-k][2,9]phenanthroline-3,10-diium trifluoromethanesulfonate], the IC50 in [1] (Homo sapiens, HL-60) was 11 to 50 µM; in data set [2] (setting [9]), over 150 µM; in [3] (Homo sapiens, CCRF-CEM), under 10 µM; in [4] (Homo sapiens, MOLT-4), 11 to 50 µM; in data set [6] (Homo sapiens, HeLa) it was 11 to 50 µM; in [7] (setting [10]), over 150 µM.

With `Cc1c(C)c2c(c3c1CC[n+]1ccc4ccccc4c1-3)-c1cccc(/C=C/c3cc4c5c(c3)CCCN5CCC4)[n+]1CC2` (racemic) [(rac)-12, (rac)-(E)-11-(2-(1,2,3,5,6,7-hexahydropyrido[3,2,1-ij]yl)vinyl)-6,7-dimethyl-4,5,8,9-tetrahydroisoquinolino[1,2-a]pyrido[1,2-k][2,9]phenanthroline-3,10-diium trifluoromethanesulfonate], the IC50 lay in the range of 51 to 150 µM in data set [2] (Fibroblast, viable cells by ATP luminescence, class symbols); 11 to 50 µM in data set [3] (Homo sapiens, CCRF-CEM); 11 to 50 µM in data set [8]; 51 to 150 µM in data set [4] (Homo sapiens, MOLT-4); 51 to 150 µM in data set [5]; 11 to 50 µM in data set [6] (Homo sapiens, HeLa). The compound also gave a half-maximal inhibitory concentration (IC50) in [7] (HUVEC, normal human endothelial cells from umbilical vein, viable cells by ATP luminescence, class symbols) of 51 to 150 µM.

As to `COc1ccc2cc(/C=C/c3cc[n+]4c(c3)-c3c(c(C)c(C)c5c3-c3c6ccccc6cc[n+]3CC5)CC4)ccc2c1` [(P)-7, (P)-(E)-13-(2-(6-methoxynaphthalene-2-yl)vinyl)-6,7-dimethyl-4,5,8,9-tetrahydroiso-quinolino[1,2-a]pyrido[1,2-k][2,9]phenanthroline-3,10-diium trifluoromethanesulfonate], the IC50 lay within 11 to 50 µM in data set [1]; 51 to 150 µM in [2] (viable cells by ATP luminescence, class symbols); 11 to 50 µM in [3]; 11 to 50 µM in data set [4]; 11 to 50 µM in data set [6]; 51 to 150 µM in data set [7] (normal human endothelial cells from umbilical vein, viable cells by ATP luminescence, class symbols).
